2 molecules from US11414385B2, “Compounds and methods for treating, detecting, and identifying compounds to treat apicomplexan parasitic diseases” (The University of Chicago, priority 2015, dated 2022) can be followed below.

The subject of series [1] is human foreskin fibroblasts (HFF). The series is described as follows: Cytotoxicity assay with WST-1 in HFF. Format: cell-based. The note with it: 10 μM and 50 μM, WST-1. As for the experimental part:
(§1) Toxicity assays were conducted using WST-1 cell proliferation reagent (Roche). HFF were grown on a flat, clear-bottomed, black 96-well plate. Confluent HFF were treated with inhibitory compounds at concentrations equal to those being tested in challenge assays. Compounds were diluted in IMDM-C, and 20 μl were added to each designated well, with triplicates for each condition. A gradient of 2 fold-decreasing concentrations of DMSO in clear IMDM-C was used as a control. The plate was incubated for 72 hours at 37° C. 10 μl of WST-1 reagent (Roche) were added to each well and the cells were incubated for 30 to 60 minutes. Absorbance was read using a fluorometer at 420 nm. A higher degree of color change (and absorbance) indicated mitochondrial activity and cell viability.
as §1, with “(Roche) as described in Fomovska, et. al. (18,19).” for “(Roche).”, “of 10 μM and 50 μM.” for “equal to those being tested in challenge assays.”, “DMSO from 10% to 0%” for “DMSO”, “fluorimeter” for “fluorometer”
(Formazan colour is commonly taken as a measure of viable cells.)

Series [2] concerns T. gondii tachyzoites (RH-YFP strain). The series is described as follows: In vitro challenge assay for Toxoplasma tachyzoites (RH-YFP in HFF, fluorescence). It counts as cell-based, Toxoplasma gondii. In outline: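 Confluent HFF monolayers infected with 3200 RH-YFP tachyzoites for 1-2 h, then compounds added (screen at 10 μM-10 nM; follow-up 1 μM-31.25 nM) and incubated 72 h at 37 °C. YFP fluorescence served as the measure of parasite burden; IC50 by graphical analysis.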

The test system of series [3] is T. gondii RH and Prugniaud strain tachyzoites. The series is described as follows: Tachyzoite infection in mice. Format: in vivo, Toxoplasma gondii. The note with it: for efficacy against Prugniaud (Type 2) tachyzoites in mice: 25 mg/kg daily. As for the experimental part: Ability of compounds to abrogate tachyzoites multiplication was assessed using an in vivo imaging system (IVIS). To facilitate this we have T. gondii strains from each of the 3 major lineages expressing the luciferase gene. In these studies mice are injected intraperitoneally with tachyzoites and parasite proliferation followed up to 30 days post infection. Removal of brains at 30 days allows parasite quantitation by bioluminescence ex vivo using the IVIS. As an alternative method to improve screening efficiency and scalability it is possible for initial screening to use zebrafish with histopathology and visualization as shown in FIG. 6. Quantitation also was performed using QT PCR as described for mice or in translucent Casper zebrafish with parasites with fluors or luciferase to screen rapidly. Tachyzoites and bradyzoites in cysts were used for IP infection and compounds given intraperitoneally.
To test type II parasites, we used T. gondii Me49 and Prugneaud parasites^S39.

Series [4] is described as follows: Cytotoxicity assay with WST-1 in HFF. The note with it: human, human foreskin fibroblasts (HFF); read-out: HFF Toxicity CC50. It counts as cell-based. On the procedure:
as §1
as §1, with “(Roche) as described in Fomovska, et. al. (18,19).” for “(Roche).”, “of 10 μM and 50 μM.” for “equal to those being tested in challenge assays.”, “DMSO from 10% to 0%” for “DMSO”, “fluorimeter” for “fluorometer”

[5] abbreviates: Toxoplasma gondii, RH-YFP, read-out: Tachy IC50.

Structures are written as SMILES. Entries after “also recorded” stand apart in the source; their conditions may differ. Like-named read-outs stand apart in the source and are kept apart here. Where only a bound is given, the exact number is not on record here.

As to `Cc1[nH]c2c(c(=O)c1-c1ccc(Oc3ccc(OC(F)(F)F)cc3)cc1)CCCC2` [JAG21, 2-methyl-3-(4-(4-(trifluoromethoxy)phenoxy)phenyl)-5,6,7,8-tetrahydroquinolin-4(1H)-one], the “toxicity to human foreskin fibroblasts” value in series [1] is listed as “no toxicity”. For the same molecule, the IC50 in series [2] (Toxoplasma gondii, read-out: IC50 against tachyzoites / active infection) came to 188 nM; in series [2] (setting [5]), 90 nM. In addition, in series [2] (Toxoplasma gondii, read-out: IC 90 against Toxoplasma gondii tachyzoites), the IC90 is less than 125 nM.
Regarding `Cc1[nH]c2c(c(=O)c1-c1ccc(Oc3ccccc3)cc1)CCCC2` [MJM170], the “efficacy against Prugniaud (Type 2) tachyzoites in mice” value was “highly efficacious” in series [3] and “reduces Type 2 parasites” in series [3] (listed as MJM 170). Also, the “efficacy against RH tachyzoites in mice” value in series [3] (25 mg/kg daily intraperitoneally, RH-YFP) is “highly efficacious; also recorded: eliminates active infection”. The toxicity in mice entry in series [3] (25 mg/kg for 5 days) is on record as “without toxicity”. The CC50 (as a rule, the concentration giving 50% cytotoxicity) at 72 h in series [4] came out at 20000 nM. Further, the IC50 came to 30 nM in series [2] (Toxoplasma gondii, RH-YFP strain, read-out: T. gondii Tachyzoite IC50) and 30 nM in series [2] (setting [5]). Further, the “reduction of RH YFP tachyzoites in tissue culture” value in series [2] (low nanoM levels) is recorded as “markedly reduces RH YFP tachyzoites”.
